Laboratory results from ChEMBL document CHEMBL4334464, “From Phenylthiazoles to Phenylpyrazoles: Broadening the Antibacterial Spectrum toward Carbapenem-Resistant Bacteria” (J Med Chem, 2019).
In brackets after ≈: the same amount, converted by molar mass. Activity calls are given as the source filed them. No cut-off for these calls is given here.

Assays:
Pseudomonas aeruginosa [1] = experiment: microbe, parasite or virus in culture; conditions: ATCC 9027
Description: Antibacterial activity against Pseudomonas aeruginosa ATCC 9027 clinical isolates after 18 to 20 hrs in aerobic condition by CLSI-based broth microdilution assay

Clostridioides difficile = experiment: Antibacterial activity against Clostridium difficile ATCC BAA 1870 incubated for 48 hrs in anaerobic condition by CLSI-based broth microdilution assay; assay type: functional; conditions: ATCC BAA 1870, 48 h
Escherichia coli [2] = experiment: Antibacterial activity against Escherichia coli ATCC 35150 clinical isolates after 18 to 20 hrs in aerobic condition by CLSI-based broth microdilution assay; assay type: functional
Acinetobacter baumannii [3] = experiment: Ratio of MBC to MIC for Acinetobacter baumannii ATCC BAA 1747 clinical isolates; assay type: functional
Escherichia coli [4] = experiment: Ratio of MBC to MIC for Escherichia coli ATCC 1411 clinical isolates; assay type: functional
Acinetobacter baumannii [5] = experiment: Ratio of MBC to MIC for Acinetobacter baumannii ATCC 19606 clinical isolates; assay type: functional, ATCC 19606 = CIP 70.34 = JCM 6841
Staphylococcus aureus [6] = experiment: Antibacterial activity against vancomycin-resistant Staphylococcus aureus isolate 12 after 18 to 20 hrs in aerobic condition by CLSI-based broth microdilution assay; assay type: functional
Klebsiella pneumoniae [7] = experiment: Antibacterial activity against carbapenem-resistant Klebsiella pneumoniae ATCC BAA-2146 clinical isolates after 18 to 20 hrs in aerobic condition by CLSI-based broth microdilution assay; assay type: functional
Klebsiella pneumoniae [8] = experiment: Antibacterial activity against Klebsiella pneumoniae BAA-1706 clinical isolates after 18 to 20 hrs in aerobic condition by CLSI-based broth microdilution assay; assay type: functional
Staphylococcus aureus [9] = experiment: Antibacterial activity against Methicillin-resistant Staphylococcus aureus NRS385-USA500 clinical isolates after 18 to 20 hrs in aerobic condition by CLSI protocol based broth microdilution assay; assay type: functional
Klebsiella pneumoniae [10] = experiment: Ratio of MBC to MIC for Klebsiella pneumoniae BAA-1706 after 18 to 20 hrs in aerobic condition by CLSI-based broth microdilution assay; assay type: functional
Pseudomonas aeruginosa [11] = experiment: Ratio of MBC to MIC for Pseudomonas aeruginosa ATCC 15442 clinical isolates; assay type: functional
Streptococcus pneumoniae = experiment: Antibacterial activity against cephalosporin-resistant Streptococcus pneumoniae ATCC 51916 clinical isolates after 18 to 20 hrs by CLSI-based broth microdilution assay; assay type: functional
Staphylococcus aureus [12] = experiment: Bactericidal activity against methicillin-resistant Staphylococcus aureus NRS123-USA400 clinical isolates at 5 times MIC incubated over 24 hrs followed by replating on tryptic soy agar plate and further incubated for 18 to 20 hrs by time kill assay; assay type: functional, organism-based
Enterococcus faecium = experiment: Antibacterial activity against vancomycin-resistant Enterococcus faecium ATCC 700221 clinical isolates after 18 to 20 hrs in aerobic condition by CLSI-based broth microdilution assay; assay type: functional
Shigella flexneri = experiment: Ratio of MBC to MIC for Shigella flexneri ATCC 9199 clinical isolates; assay type: functional
Escherichia coli [13] = experiment: Antibacterial activity against Escherichia coli ATCC 25922 clinical isolates after 18 to 20 hrs in aerobic condition by CLSI-based broth microdilution assay; assay type: functional
Staphylococcus aureus [14] = experiment: Antibacterial activity against linezolid-resistant/Methicillin-resistant Staphylococcus aureus NRS119 clinical isolates after 18 to 20 hrs in aerobic condition by CLSI protocol based broth microdilution assay; assay type: functional
Acinetobacter baumannii [15] = experiment: Antibacterial activity against carbapenem-resistant Acinetobacter baumannii ATCC BAA 1605 clinical isolates after 18 to 20 hrs in aerobic condition by CLSI-based broth microdilution assay; assay type: functional
Escherichia coli [16] = experiment: Antimicrobial activity against Escherichia coli JW55031 harboring deltatolC mutant after 18 to 20 hrs in aerobic condition by CLSI protocol based broth microdilution assay; assay type: functional
Acinetobacter baumannii [17] = experiment: Antibacterial activity against Acinetobacter baumannii ATCC BAA 1141 clinical isolates after 18 to 20 hrs in aerobic condition by CLSI-based broth microdilution assay; assay type: functional
Salmonella enteritidis [18] = experiment: Antibacterial activity against Salmonella enteritidis ATCC 14028 clinical isolates after 18 to 20 hrs in aerobic condition by CLSI-based broth microdilution assay; assay type: functional, Salmonella enterica subsp. enterica serovar Enteritidis; conditions: Salmonella enterica
Pseudomonas aeruginosa [19] = experiment: microbe, parasite or virus in culture; conditions: ATCC 25619
Description: Antibacterial activity against Pseudomonas aeruginosa ATCC 25619 clinical isolates after 18 to 20 hrs in aerobic condition by CLSI-based broth microdilution assay

Salmonella typhimurium = experiment: Ratio of MBC to MIC for Salmonella typhimurium ATCC 700720 clinical isolates; assay type: functional, Salmonella enterica subsp. enterica serovar Typhimurium
Escherichia coli [20] = experiment: Inhibition of 6His tagged Escherichia coli UPPP expressed in Escherichia coli C41(DE3) cells preincubated for 15 mins followed by FPP substrate addition and measured after 20 mins by malachite green reagent based assay
Salmonella enteritidis [21] = experiment: Antibacterial activity against Salmonella enteritidis ATCC 13076 clinical isolates after 18 to 20 hrs in aerobic condition by CLSI-based broth microdilution assay; assay type: functional, Salmonella enterica subsp. enterica serovar Enteritidis; conditions: Salmonella enterica
Escherichia coli [22] = experiment: Ratio of MBC to MIC for Escherichia coli ATCC 35150 clinical isolates; assay type: functional
Escherichia coli [23] = experiment: microbe, parasite or virus in culture; conditions: ATCC 1411
Description: Antibacterial activity against Escherichia coli ATCC 1411 clinical isolates after 18 to 20 hrs in aerobic condition by CLSI-based broth microdilution assay

Acinetobacter baumannii [24] = experiment: Ratio of MBC to MIC for Acinetobacter baumannii NR 17785 clinical isolates; assay type: functional
Staphylococcus aureus [25] = experiment: Ratio of MBC to MIC for Methicillin-sensitive Staphylococcus aureus ATCC 6538 clinical isolates; assay type: functional
[26] = test system: Staphylococcus epidermidis; experiment: Antibacterial activity against Staphylococcus epidermidis NRS101 after 18 to 20 hrs in aerobic condition by CLSI-based broth microdilution assay; assay type: functional
Salmonella enterica [27] = experiment: Ratio of MBC to MIC for Salmonella enterica NR-170 clinical isolates; assay type: functional
Listeria monocytogenes = experiment: Ratio of MBC to MIC for Listeria monocytogenes ATCC 19111 clinical isolates; assay type: functional
Acinetobacter baumannii [28] = experiment: Antibacterial activity against Acinetobacter baumannii ATCC 19606 clinical isolates after 18 to 20 hrs in aerobic condition by CLSI-based broth microdilution assay; assay type: functional; conditions: ATCC 19606 = CIP 70.34 = JCM 6841
Pseudomonas aeruginosa [29] = experiment: Ratio of MBC to MIC for Pseudomonas aeruginosa ATCC 9027 clinical isolates; assay type: functional
Escherichia coli [30] = experiment: Antibacterial activity against carbapenem-resistant Escherichia coli BAA-2469 clinical isolates after 18 to 20 hrs in aerobic condition by CLSI-based broth microdilution assay; assay type: functional
Pseudomonas aeruginosa [31] = experiment: Ratio of MBC to MIC for Pseudomonas aeruginosa ATCC 25619 clinical isolates; assay type: functional
Acinetobacter baumannii [32] = experiment: Ratio of MBC to MIC for Acinetobacter baumannii NR 17786 clinical isolates; assay type: functional
Staphylococcus aureus [33] = experiment: Antibacterial activity against Methicillin-resistant Staphylococcus aureus NRS123-USA400 clinical isolates after 18 to 20 hrs in aerobic condition by CLSI protocol based broth microdilution assay; assay type: functional
[34] = Antibacterial activity against Enterobacter cloacae subsp. cloacae ATCC BAA-1143 clinical isolates after 18 to 20 hrs in aerobic condition by CLSI-based broth microdilution assay; assay type: functional
Staphylococcus aureus [35] = experiment: Antibacterial activity against Methicillin-sensitive Staphylococcus aureus NRS107 clinical isolates after 18 to 20 hrs in aerobic condition by CLSI protocol based broth microdilution assay; assay type: functional
Salmonella enterica [36] = experiment: Antibacterial activity against Salmonella enterica NR-170 clinical isolates after 18 to 20 hrs in aerobic condition by CLSI-based broth microdilution assay; assay type: functional
Pseudomonas aeruginosa [37] = experiment: Antibacterial activity against carbapenem-resistant Pseudomonas aeruginosa ATCC 1744 clinical isolates after 18 to 20 hrs in aerobic condition by CLSI-based broth microdilution assay; assay type: functional

Compound `CCCCCC#Cc1ccc(-n2ncc(/C(C)=N/NC(=N)N)c2C)cc1` has an MIC (Pseudomonas aeruginosa [1]) of 16 µg/mL (≈ 45.7 µM), an MIC (Clostridioides difficile) of 4 µg/mL (≈ 11.4 µM) and an MIC (Escherichia coli [2]) of 8 µg/mL (≈ 22.8 µM). For the same compound, the Ratio (Acinetobacter baumannii [3]) was “>=1”, the Ratio (Escherichia coli [4]) was “>=1” and the Ratio (Acinetobacter baumannii [5]) was “>=1”. The MIC (Staphylococcus aureus [6]) was 2 µg/mL (≈ 5.71 µM), the MIC (Klebsiella pneumoniae [7]) was 32 µg/mL (≈ 91.3 µM) and the MIC (Klebsiella pneumoniae [8]) was 8 µg/mL (≈ 22.8 µM). For the same compound, the MIC (Staphylococcus aureus [9]) was 2 µg/mL (≈ 5.71 µM), the Ratio (Klebsiella pneumoniae [10]) was “>=1” and the Ratio (Pseudomonas aeruginosa [11]) was “>=1”. For the same compound, the MIC (Streptococcus pneumoniae) was 2 µg/mL (≈ 5.71 µM), the Activity (Staphylococcus aureus [12]) was “Active” and the MIC (Enterococcus faecium) was 2 µg/mL (≈ 5.71 µM). For the same compound, the Ratio (Shigella flexneri) was “>=1”, the MIC (Escherichia coli [13]) was 8 µg/mL (≈ 22.8 µM) and the MIC (Staphylococcus aureus [14]) was 2 µg/mL (≈ 5.71 µM). The MIC (Acinetobacter baumannii [15]) was 8 µg/mL (≈ 22.8 µM), the MIC (Escherichia coli [16]) was 4 µg/mL (≈ 11.4 µM) and the MIC (Acinetobacter baumannii [17]) was 4 µg/mL (≈ 11.4 µM). The MIC (Salmonella enteritidis [18]) was 16 µg/mL (≈ 45.7 µM), the MIC (Pseudomonas aeruginosa [19]) was 32 µg/mL (≈ 91.3 µM) and the Ratio (Salmonella typhimurium) was “>=1”. For the same compound, the inhibition (Escherichia coli [20]) was “inactive”, the MIC (Salmonella enteritidis [21]) was 8 µg/mL (≈ 22.8 µM) and the Ratio (Escherichia coli [22]) was “>=1”. The MIC (Escherichia coli [23]) was 16 µg/mL (≈ 45.7 µM), the Ratio (Acinetobacter baumannii [24]) was “>=1” and the Ratio (Staphylococcus aureus [25]) was “<=2”. For the same compound, the MIC [26] was 2 µg/mL (≈ 5.71 µM), the Ratio (Salmonella enterica [27]) was “>=1” and the Ratio (Listeria monocytogenes) was under 3. For the same compound, the MIC (Acinetobacter baumannii [28]) was 4 µg/mL (≈ 11.4 µM), the Ratio (Pseudomonas aeruginosa [29]) was “>=1” and the MIC (Escherichia coli [30]) was 8 µg/mL (≈ 22.8 µM). For the same compound, the Ratio (Pseudomonas aeruginosa [31]) was “>=1”, the Ratio (Acinetobacter baumannii [32]) was “>=1” and the MIC (Staphylococcus aureus [33]) was 2 µg/mL (≈ 5.71 µM). The MIC [34] was 8 µg/mL (≈ 22.8 µM), the MIC (Staphylococcus aureus [35]) was 2 µg/mL (≈ 5.71 µM) and the MIC (Salmonella enterica [36]) was 8 µg/mL (≈ 22.8 µM). It also gave an MIC (Pseudomonas aeruginosa [37]) of 32 µg/mL (≈ 91.3 µM).
